# Source: ChEMBL document CHEMBL1141951, “Anti-malarial activity of Baylis-Hillman adducts from substituted 2-chloronicotinaldehydes” (Bioorg Med Chem Lett, 2005)
# Legend:
# Type in all cases: functional, organism-based
# Plasmodium falciparum [1] = assay: Antimalarial activity as reduced schizont maturation after 24 hrs against chloroquine-resistant Plasmodium falciparum FDL-NG
# Plasmodium falciparum [2] = assay: Antimalarial activity as growth inhibition after 48 hrs against chloroquine-resistant Plasmodium falciparum FDL-NG
# Plasmodium falciparum [3] = assay: Antimalarial activity as growth inhibition after 48 hrs against chloroquine-sensitive Plasmodium falciparum FDL-B
# Plasmodium falciparum [4] = assay: Antimalarial activity as reduced schizont maturation against chloroquine-sensitive Plasmodium falciparum FDL-B after 24 hrs
Structure (SMILES),IC50 (Plasmodium falciparum [1]) [µg/mL],IC50 (Plasmodium falciparum [2]) [µg/mL],IC50 (Plasmodium falciparum [3]) [µg/mL],IC50 (Plasmodium falciparum [4]) [µg/mL],IC90 (Plasmodium falciparum [1]) [µg/mL],IC90 (Plasmodium falciparum [2]) [µg/mL],IC90 (Plasmodium falciparum [4]) [µg/mL],IC90 (Plasmodium falciparum [3]) [µg/mL]
C=C(C#N)C(O)c1cc(C)cnc1Cl (centres undefined),22.5,10.5,1.3,1.25,,,,
C=C(C(=O)OC)C(O)c1cc(-c2ccccc2)cnc1Cl (centres undefined),5,10.8,115,45,,,,
C=C(C#N)C(O)c1ccc(C(=O)OC)nc1Cl (centres undefined),5.75,6.75,7,3.4,,,,
C=C(C(=O)OC)C(O)c1cc(C)cnc1Cl (centres undefined),3.05,5.75,28.5,18,7,27.5,32,
C=C(C#N)C(O)c1cc(CC)cnc1Cl (centres undefined),2.5,5.5,4,1.8,,,,
C=C(C#N)C(O)c1cc(-c2ccccc2)cnc1Cl (centres undefined),0.9,2.2,8,3.6,,,,
CCN(CC)CCCC(C)Nc1ccnc2cc(Cl)ccc12 (centres undefined) [CHLOROQUINE],,,,,,,0.018,0.02
